This note sets out measurements from ChEMBL document CHEMBL1157058, “3D-QSAR studies on quinazoline antifolate thymidylate synthase inhibitors by CoMFA and CoMSIA models” (Eur J Med Chem, 2010).

Usually IC50 stands for the midpoint of a concentration-inhibition curve.

In this experiment the target is Thymidylate synthase (Homo sapiens, UniProt P04818). The experiment is described as follows: Inhibition of thymidylate synthase.
Sequence of Thymidylate synthase (P04818 whole entry): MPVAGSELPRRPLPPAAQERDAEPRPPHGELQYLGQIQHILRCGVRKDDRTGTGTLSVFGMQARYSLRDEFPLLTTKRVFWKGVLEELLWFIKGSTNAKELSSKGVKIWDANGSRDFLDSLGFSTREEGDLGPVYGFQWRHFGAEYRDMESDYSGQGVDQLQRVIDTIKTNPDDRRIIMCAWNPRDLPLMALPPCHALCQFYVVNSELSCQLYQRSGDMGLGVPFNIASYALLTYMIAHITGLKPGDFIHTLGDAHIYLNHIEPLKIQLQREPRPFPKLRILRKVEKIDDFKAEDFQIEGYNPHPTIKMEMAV
In the case of `C#CCN(Cc1ccc2nc(C)[nH]c(=O)c2c1)c1ccc(C(=O)N[C@@H](CCC(=O)O)C(=O)O)c(Cl)c1`, the IC50 is 74.1 nM.
In the case of `C=CCN(Cc1ccc2nc(C)[nH]c(=O)c2c1)c1ccc(C(=O)N[C@@H](CCC(=O)O)C(=O)O)s1` it was 1660 nM; in that of `C#CCN(Cc1ccc2nc(N)[nH]c(=O)c2c1)c1ccc(C(=O)N[C@@H](CCC(=O)O)C(=O)O)c(F)c1`, 8.91 nM.
Next, `Cc1nc2ccc(CN(CCO)c3ccc(C(=O)N[C@@H](CCC(=O)O)C(=O)O)cc3)cc2c(=O)[nH]1`: 501 nM.
